Measured values published in patent publication US20040234592A1, “Dermatological formulations” (priority 2001, published 2004).

Experiments:
[1] = tested on: atrophy induced by topical betamethasone; assay: Betamethasone-induced skin atrophy in mice, concomitant TriAc; format: in vivo; settings: concomitant treatment with topical betamethasone
[2] = tested on: genes important for skin structure and function; settings: established models of human skin; cited from earlier work

For `O=C(O)Cc1cc(I)c(Oc2ccc(O)c(I)c2)c(I)c1` [TriAc, [4-(4-Hydroxy-3-iodophenoxy)-3,5-diiodophenyl]acetic acid], the “atrophy (reduction of total collagen and of cross-linking between collagen bundles in the dermis)” value [1] is listed as “totally prevents the atrophy” and the “expression of genes important for skin structure and function” value [2] is listed as “regulate expression of several genes”.
